From the CheMixHub viscosity set
“And” between values parts separate entries of the source, which are not always exact repeats. Identical values can stand only once. ± gives the uncertainty stated by the source.

Experiment: xn = mol fraction of the nth substance listed

CC(C)OCCO + CCCCCCO
viscosity [mPa·s], 101 kPa
Settings	298.15 K	303.15 K	308.15 K
x1 = 0.0533	4.409 ± 0.27	3.75 ± 0.23	3.294 ± 0.2
x1 = 0.1018	4.192 ± 0.25	3.555 ± 0.21	3.096 ± 0.19
x1 = 0.1512	3.993 ± 0.24	3.38 ± 0.2	2.917 ± 0.18
x1 = 0.2013	3.789 ± 0.23	3.2 ± 0.19	2.752 ± 0.17
x1 = 0.254	3.6 ± 0.22	3.033 ± 0.18	2.601 ± 0.16
x1 = 0.3074	3.4 ± 0.2	2.857 ± 0.17	2.449 ± 0.15
x1 = 0.4034	3.103 ± 0.19	2.596 ± 0.16	2.216 ± 0.13
x1 = 0.5044	2.834 ± 0.17	2.374 ± 0.14	2.028 ± 0.12
x1 = 0.6042	2.631 ± 0.16	2.216 ± 0.13	1.894 ± 0.11
x1 = 0.7118	2.449 ± 0.15	2.079 ± 0.12	1.79 ± 0.11
x1 = 0.8046	2.312 ± 0.14	1.985 ± 0.12	1.758 ± 0.11
x1 = 0.8418	2.305 ± 0.14	1.991 ± 0.12	1.777 ± 0.11
x1 = 0.9001	2.262 ± 0.14	1.975 ± 0.12	1.763 ± 0.11
x1 = 0.953	2.226 ± 0.13	1.952 ± 0.12	1.771 ± 0.11

CCCCOCCO + CCCCCCCCCCO
101 kPa
Settings	viscosity [mPa·s]
303.15 K, x1 = 0.1024	8.155 ± 0.18
308.15 K, x1 = 0.7009	3.195 ± 0.07

CCOC(=O)CCl + Cc1ccccc1
viscosity [mPa·s], 101.3 kPa
Settings	x1 = 0.1004	x1 = 0.207	x1 = 0.299	x1 = 0.4013	x1 = 0.5048	x1 = 0.6083	x1 = 0.6963	x1 = 0.8022	x1 = 0.9006
298.15 K	0.594 ± 0.006	0.631 ± 0.007	0.671 ± 0.007	0.714 ± 0.007	0.768 ± 0.007	0.823 ± 0.008	0.878 ± 0.008	0.945 ± 0.008	1.02 ± 0.009
303.15 K	0.561 ± 0.006	0.594 ± 0.006	0.63 ± 0.007	0.669 ± 0.007	0.719 ± 0.007	0.77 ± 0.007	0.818 ± 0.008	0.881 ± 0.008	0.947 ± 0.009
308.15 K	0.528 ± 0.006	0.559 ± 0.006	0.59 ± 0.006	0.626 ± 0.007	0.671 ± 0.007	0.718 ± 0.007	0.758 ± 0.007	0.817 ± 0.008	0.873 ± 0.008

CC(C)OCCO + CCCCCO
298.15 K, 101.33 kPa
Settings	viscosity [mPa·s]
x1 = 0.0159	3.466 ± 0.031
x1 = 0.0312	3.405 ± 0.03
x1 = 0.0461	3.354 ± 0.03
x1 = 0.0653	3.292 ± 0.03
x1 = 0.0867	3.234 ± 0.029
x1 = 0.1097	3.16 ± 0.029
x1 = 0.137	3.099 ± 0.029
x1 = 0.1627	3.029 ± 0.028
x1 = 0.1931	2.952 ± 0.028
x1 = 0.2267	2.881 ± 0.028
x1 = 0.2585	2.819 ± 0.027
x1 = 0.2966	2.748 ± 0.027
x1 = 0.3417	2.677 ± 0.027
x1 = 0.3843	2.61 ± 0.026
x1 = 0.4446	2.526 ± 0.026
x1 = 0.4848	2.473 ± 0.026
x1 = 0.4956	2.461 ± 0.026
x1 = 0.5246	2.432 ± 0.026
x1 = 0.5561	2.397 ± 0.026
x1 = 0.6012	2.357 ± 0.026
x1 = 0.6643	2.297 ± 0.026
x1 = 0.7168	2.261 ± 0.026
x1 = 0.7741	2.218 ± 0.026
x1 = 0.8198	2.191 ± 0.026
x1 = 0.8573	2.167 ± 0.026
x1 = 0.8964	2.142 ± 0.026
x1 = 0.9259	2.133 ± 0.026
x1 = 0.9558	2.116 ± 0.026
x1 = 0.9775	2.11 ± 0.026

c1ccc2c(c1)CCCC2 + COC(C)(C)C
303.15 K, 101 kPa
Settings	viscosity [mPa·s]
x2 = 0.1289	1.534
x2 = 0.1851	1.432
x2 = 0.2839	1.253
x2 = 0.3506	1.136
x2 = 0.4458	0.983
x2 = 0.5017	0.903
x2 = 0.6257	0.737
x2 = 0.7392	0.606
x2 = 0.8539	0.486
x2 = 0.9246	0.37

CCCCNCCO + CCCCOCCO
viscosity
Settings	293.15 K	298.15 K	303.15 K	308.15 K	313.15 K	318.15 K	323.15 K
101.3 kPa, x1 = 0.404	7.13 ± 0.15 mPa·s	5.95 ± 0.13 mPa·s	5.02 ± 0.11 mPa·s	4.27 ± 0.09 mPa·s	3.67 ± 0.08 mPa·s	3.18 ± 0.07 mPa·s	2.77 ± 0.06 mPa·s
101.3 kPa, x1 = 0.604	10.3 ± 0.22 mPa·s	8.4 ± 0.18 mPa·s	6.94 ± 0.15 mPa·s	5.8 ± 0.12 mPa·s	4.89 ± 0.1 mPa·s	4.17 ± 0.09 mPa·s	3.58 ± 0.08 mPa·s
101.33 kPa, x1 = 0.1	3.94 ± 0.09 mPa·s and 3.941 ± 0.085 mPa·s	3.4 ± 0.08 mPa·s and 3.405 ± 0.074 mPa·s	2.96 ± 0.07 mPa·s and 2.963 ± 0.064 mPa·s	2.6 ± 0.06 mPa·s and 2.598 ± 0.056 mPa·s	2.29 ± 0.05 mPa·s and 2.294 ± 0.053 mPa·s	2.04 ± 0.05 mPa·s and 2.038 ± 0.052 mPa·s	1.82 ± 0.04 mPa·s and 1.821 ± 0.052 mPa·s
101.33 kPa, x1 = 0.2	4.813 ± 0.11 mPa·s	4.111 ± 0.089 mPa·s	3.541 ± 0.076 mPa·s	3.075 ± 0.066 mPa·s	2.69 ± 0.058 mPa·s	2.369 ± 0.053 mPa·s	2.099 ± 0.053 mPa·s
101.33 kPa, x1 = 0.3	5.87 ± 0.13 mPa·s and 5.865 ± 0.13 mPa·s	4.95 ± 0.11 mPa·s and 4.952 ± 0.11 mPa·s	4.22 ± 0.09 mPa·s and 4.221 ± 0.091 mPa·s	3.63 ± 0.08 mPa·s and 3.629 ± 0.078 mPa·s	3.15 ± 0.07 mPa·s and 3.146 ± 0.068 mPa·s	2.75 ± 0.06 mPa·s and 2.746 ± 0.059 mPa·s	2.41 ± 0.05 mPa·s and 2.414 ± 0.053 mPa·s
101.33 kPa, x1 = 0.4	7.135 ± 0.16 mPa·s	5.951 ± 0.13 mPa·s	5.019 ± 0.11 mPa·s	4.272 ± 0.092 mPa·s	3.669 ± 0.079 mPa·s	3.176 ± 0.068 mPa·s	2.77 ± 0.059 mPa·s
101.33 kPa, x1 = 0.5	8.57 ± 0.19 mPa·s and 8.573 ± 0.18 mPa·s	7.07 ± 0.16 mPa·s and 7.072 ± 0.15 mPa·s	5.9 ± 0.13 mPa·s and 5.901 ± 0.13 mPa·s	4.98 ± 0.11 mPa·s and 4.975 ± 0.11 mPa·s	4.24 ± 0.09 mPa·s and 4.236 ± 0.091 mPa·s	3.64 ± 0.08 mPa·s and 3.638 ± 0.078 mPa·s	3.15 ± 0.07 mPa·s and 3.149 ± 0.068 mPa·s
101.33 kPa, x1 = 0.6	10.3 ± 0.22 mPa·s	8.404 ± 0.18 mPa·s	6.94 ± 0.15 mPa·s	5.796 ± 0.12 mPa·s	4.891 ± 0.11 mPa·s	4.166 ± 0.089 mPa·s	3.58 ± 0.077 mPa·s
101.33 kPa, x1 = 0.7	12.21 ± 0.26 mPa·s	9.853 ± 0.21 mPa·s	8.056 ± 0.17 mPa·s	6.668 ± 0.14 mPa·s	5.582 ± 0.12 mPa·s	4.719 ± 0.1 mPa·s	4.027 ± 0.086 mPa·s
101.33 kPa, x1 = 0.8	14.41 ± 0.31 mPa·s	11.5 ± 0.25 mPa·s	9.314 ± 0.2 mPa·s	7.641 ± 0.16 mPa·s	6.345 ± 0.14 mPa·s	5.326 ± 0.11 mPa·s	4.514 ± 0.097 mPa·s
101.33 kPa, x1 = 0.9	16.91 ± 0.36 mPa·s	13.36 ± 0.29 mPa·s	10.72 ± 0.23 mPa·s	8.718 ± 0.19 mPa·s	7.183 ± 0.15 mPa·s	5.985 ± 0.13 mPa·s	5.042 ± 0.11 mPa·s

C/C=C/C(=O)OCC + CCO
viscosity [mPa·s], 101 kPa
Settings	x1 = 0.0991	x1 = 0.1985	x1 = 0.2994	x1 = 0.3961	x1 = 0.5006	x1 = 0.6	x1 = 0.6968	x1 = 0.7816	x1 = 0.8996
293.15 K	1.026 ± 0.0082	0.929 ± 0.0077	0.9257 ± 0.0078	0.9219 ± 0.008	0.878 ± 0.0079	0.8293 ± 0.0078	0.8016 ± 0.0079	0.8351 ± 0.0084	0.8122 ± 0.0087
298.15 K	0.9334 ± 0.0076	0.8523 ± 0.0071	0.8465 ± 0.0072	0.8404 ± 0.0074	0.8061 ± 0.0074	0.7663 ± 0.0073	0.7402 ± 0.0073	0.7648 ± 0.0078	0.7535 ± 0.0081
303.15 K	0.8498 ± 0.007	0.7812 ± 0.0066	0.7751 ± 0.0067	0.7739 ± 0.0069	0.7411 ± 0.0068	0.7061 ± 0.0068	0.6855 ± 0.0069	0.7052 ± 0.0073	0.7 ± 0.0076
313.15 K	0.7166 ± 0.0061	0.6615 ± 0.0058	0.6607 ± 0.0059	0.6588 ± 0.006	0.6372 ± 0.006	0.6091 ± 0.006	0.5958 ± 0.0061	0.6134 ± 0.0064	0.6108 ± 0.0067
323.15 K	0.6156 ± 0.0053	0.5747 ± 0.0051	0.5702 ± 0.0052	0.5686 ± 0.0053	0.5537 ± 0.0053	0.5363 ± 0.0054	0.5284 ± 0.0055	0.5414 ± 0.0058	0.5401 ± 0.006
